Measured values published in US7022484B2, “Methods for treating neuropathological states and neurogenic inflammatory states and methods for identifying compounds useful therein” (Board of Regents, The University of Texas System, priority 2000, dated 2006).

Columns and labels:
rat arthritis model [1] = assay: Paw withdrawal latency (PWL) to radiant heat in rat kaolin/carrageenan knee joint inflammation model; type: in vivo; settings: for development of secondary hyperalgesia: spinal microdialysis pre-treatment, 4 hours after induction of arthritis
Protocol: All studies followed the guidelines of the Institute Animal Care and Use Committee, in accordance with the guidelines of the National Institutes of Health. All animals were hosted in a room with a constant ambient temperature of 22° C. and 12 hour light/dark cycle with free access to food and water. Eighty-five Sprague-Dawley rats (250–300 grams) total were used in experiments conducted for biochemical, behavioral, and immunocytochemistry studies. […] On Day 2 baseline behavioral testing was followed by infusion of agents for 1.5 hours (pretreatment) prior to induction of knee joint inflammation under brief anesthesia. Behavioral testing was repeated 4 hours after induction of joint inflammation. Anesthetized animals were either transcardially perfused with aldehydes for immunohistochemical studies or fresh, frozen tissues collected for biochemical studies.
A microdialysis fiber was implanted into the spinal dorsal horn of anesthetized rats (sodium pentobarbital, 50 mg/kg) one day prior to the induction of arthritis according to the procedure of Skilling et al. (J. Neurochem., 51:127–132 (1988)), as described in Sluka et al. (Neurosci. Lett., 145:141–144 (1992)). Briefly, a small midline incision was made in the skin over the T12 vertebral level. The vertebrae were cleared of muscle and two 1 millimeter (mm) holes were drilled in the lateral aspect of both sides of the T12 vertebrae to expose the L4 spinal segment. A microdialysis fiber ([…], 45,000 MW cut-off, Hospal, AN69, Hospal Industrie, Meyzieu, France), was passed transversely across the deep dorsal horn and stabilized with dental cement. The microdialysis fiber was then passed through the holes in the vertebrae and transversely through the dorsal horn of the spinal cord. A 2 mm section of the microdialysis fiber lies in the dorsal horn at the level of L3–4 segment. The tubing was coated with epoxy except for a permeable portion passing through the spinal grey matter. The microdialysis fiber was connected to PE20 tubing (Becton Dickinson and Company, San Mateo, Calif.) which was tunneled under the skin to the nape of the neck. Alternatively as a systemic control for drug administration, the microdialysis fiber was implanted only in the subcutaneous tissue over the back muscle and tunneled to the neck. Artificial cerebrospinal fluid (aCSF) was made as described by Sorkin et al. (J. Neurosci. Methods, 23, 131–138 (1988)) and was infused (5 microliters/minute) for 1.5 hours and then the tube was heat-sealed for use on the following day.
Dose response curves were generated for Genistein with animals receiving Genistein spinally at concentration of 0.2 mM (n=3), 0.5 mM (n=3), 1 mM (n=9), and 2 mM (n=3). Animals received Lavendustin A or B spinally at concentrations of 0.1 mM (n=3), 0.5 mM (n=3), and 1 mM (n=5) as a positive and negative control for Genistein. […] Daidzein was tested at a dose of 1 mM (n=3). […] Eight additional animals received the vehicle, 50% DMSO in aCSF, as a control.
(§1) An acute inflammatory response restricted to the knee joint can be induced by the injection of 3% kaolin and 3% carrageenan (in sterile saline; 0.1 ml; pH 7.4) into the joint cavity while the animal is briefly anesthetized with sodium methohexital (Brevital, 60 mg/kg, i.p.). Kaolin and carrageenan were obtained from Fisher Scientific, St. Louis, Mo. The knee joint is flexed manually until the rat awakes (approximately 5–10 minutes). In this arthritis model in the awake rat, localized joint swelling, as well as limping and guarding of the limb, are well developed at 4 hours (Sluka et al., Pain, 59, 95–100 (1994)) when behavioral testing begins.
Fifty-five rats were used for behavioral studies. Four hours after induction of the arthritis, the joint is swollen and increased withdrawal responses to radiant heat and spontaneous guarding of the limb were noted. The increased responsiveness to noxious stimuli indicates the presence of secondary hyperalgesia. […]

TNFα = TNFα release by ELISA from SW982 synovial cells treated with NMDA and ACPD; type: cell-based, human; settings: 24 hours, NMDA (5 mM) and ACPD (5 mM), K252a (100 nM)
Protocol: The cultured cell lines used in these studies were the human neuroblastoma clonal line, SHSY5Y, and the human synovial sarcoma clonal line, SW982, both available through the American Tissue Type Culture Collection (item number CRL 2266 and HTB-93, respectively). Cells were grown in Dulbecco's Modification of Eagles Medium (DMEM) without L-glutamine, with 4.5 grams/Liter glucose, and with 10% bovine fetal serum in a tissue culture incubator at 37° C. in a gaseous mixture of O2/CO2. Cells were routinely split as necessary to maintain proper cell density. Cells were removed from plates by adding TRYPSIN/EDTA in Hank's Balanced Salt solution. After cell counts, approximately 10,000 cells were plated per well in a culture dish. For experiments, the cells were plated into 35 mm Petri dishes or 6- or 24-well plates as needed.
For detection of released Tumor Necrosis Factor alpha (TNFα) and some western blot experiments, cells were exposed to the two glutamate agonists NMDA (5 mM) and ACPD (5 mM), in the presence or absence of the tyrosine kinase inhibitors Genistein […] or K252a (100 nM). […]
The release of the inflammatory mediator and initiator of inflammatory cascades, TNFα was measured by ELISA using a commercially available kit (R&D Quantikine, Catalog Number DTA50) specific for human TNFα. […]

NMDA currents = settings: patch clamp studies; cited from earlier work
rat arthritis model [2] = assay: Knee joint circumference and joint temperature in kaolin/carrageenan knee joint inflammation model; type: in vivo; settings: 4 hours after kaolin/carrageenan; spinal pre-treatment
Protocol: as §1
Knee joint circumference is measured in centimeters (cm) with a flexible tape measure around the center of the knee joint while the joint is held in extension as done with patients in the clinical setting as an indication of increases in joint volume. The knee joints of anesthetized rats are measured before (baseline) and four hours following injection of the knee joint with kaolin and carrageenan.
Temperature readings were documented numerically with a temperature probe after the rat is reanesthetized with sodium pentobarbital (50 mg/kg, i.p.) just prior to perfusion with aldehydes for histological preservation. Comparative temperature differences were made between the baseline temperature and the temperature four hours after induction of inflammation.

[3] = system: NMDA receptor subunit NR1; assay: Immunocytochemical localization of NMDA receptor subunit NR1 in spinal cord of arthritic rats; type: in vivo, rat; settings: 4 hours, Genistein 1 mM spinal pre-treatment, cycloheximide 100 mg/kg i.p.
From the text: Cycloheximide (100 milligrams per kilogram (mg/kg) intraperitoneal (i.p.) was used in some studies to determine if the alterations observed for the NMDA NR1 receptor subunit could be attributed to newly synthesized NR1 protein.
Twenty-four rats in 3 separate groups were used for immunocytochemical studies. One group of rat (n=8) was a naive control. The other 2 groups (n=16) of rats received surgical placement of the microdialysis fiber placement. On the day after microdialysis fiber placement, the animals were treated spinally with either Genistein (1 mM) or vehicle (50% DMSO in aCSF) for 1.5 hours (n=8 for each group). Then the left knee joint of all sixteen rats was injected with 0.1 ml of kaolin and carrageenan.
Animals were anesthetized and transcardially perfused with a brief warm saline rinse followed by fixative solution (4% paraformaldehyde in 0.1 M phosphate buffer, pH 7.4). The tissues were soaked overnight in 30% buffered sucrose and cut at 30 microns on a sliding microtome. For light microscopy, the tissues from animals (n=8) were permeabilized with a 50% buffered ethanol treatment. Tissue sections were then stained immunocytochemically for glutamate receptor subunit NR1 and phospho-NR1. Primary antibodies to be used for staining include anti-NMDA NR1 NMDA receptor (0.5–1 milligrams per milliliter (mg/ml)) purchased from Chemlcon Inc. (Pittsburgh, Pa.). Other neurotransmitter and receptor primary antibodies against NMDA NR2C, mGluR1, and mGluR5 were used as stain specificity controls. The primary antibodies were diluted in phosphate buffered saline (PBS, pH 7.6) with 0.1% BSA for overnight incubation on the spinal cord tissues. After washing in PBS, the tissue sections were incubated in the appropriate secondary antibody, either anti-mouse or anti-rabbit IgG (1:100, 30 minutes) and in avidin-biotin complex (ABC, 1:100, Vector Laboratories, Burlingame, Calif.). Sections were reacted with diaminobenzidine (DAB) solution (1.5 mg/ml) as the chromogen and peroxide (0.5 mg/ml) to produce a dense reaction product. To further intensify the reaction product particularly for visualization of nuclear rings, some tissues were reacted with colloidal gold conjugated IgG and reacted with a silver chloride solution to produce an intense black reaction product (Takizawa et al., J. Histochemistry & Cytochemistry, 42, 1615–1623 (1994)).
Immunocytochemical controls included sections processed in the absence of the primary or secondary antibody or ABC reagents. The specificity of the transmitter antibodies was confirmed by appearance of a single band by Western blot. In addition to use of the C-terminus NR1 antibody from ChemIcon, an antibody directed to the N-terminus of the NR1 protein was used as control (1 mg/ml; BD PharMingen, San Diego, Calif.). […]

With `O=C(O)c1cc(N(Cc2ccccc2O)Cc2ccccc2O)ccc1O` [Lavendustin B] the “development of secondary hyperalgesia” value (rat arthritis model [1]) was “ineffective in altering the nociceptive outcome of knee joint inflammation”.
For `COC(=O)[C@@]1(O)C[C@H]2O[C@]1(C)n1c3ccccc3c3c4c(c5c6ccccc6n2c5c31)C(=O)NC4` [K252a], the “NMDA/ACPD-promoted release of TNFα” value (TNFα) was “completely abolished”.
In the case of `O=C(O)c1cc(N(Cc2ccccc2O)Cc2cc(O)ccc2O)ccc1O` [Lavendustin A], the “effect on NMDA currents” value (NMDA currents) is given as “reversibly depresses NMDA currents”, the joint circumference (rat arthritis model [2]) is given as “expected increases” and the joint temperature (rat arthritis model [2]) is given as “expected increases”. For the same compound, the “most effective dose in pre-treatment animals” value (rat arthritis model [1]; concentration inside the microdialysis fiber, spinal administration) was 0.5 mM, the “PWL decrease induced by knee joint inflammation” value (rat arthritis model [1]; spinal microdialysis pre-treatment 1.5 hours, PWL to radiant heat 4 hours after kaolin/carrageenan) was “significantly (p<0.05 versus 4 hours vehicle group) attenuated the PWL decreases” and the “development of secondary hyperalgesia” value (rat arthritis model [1]) was “significantly abrogated the development of secondary hyperalgesia”.
In the case of `C[C@@H]1C[C@@H]([C@H](O)CC2CC(=O)NC(=O)C2)C(=O)[C@@H](C)C1` [Cycloheximide], the “staining for NR1 in spinal cord” value [3] is reported as “did not totally reduce the staining to baseline” and the “staining for NR1 in spinal cord” value ([3]; listed as cycloheximide) is reported as “reduced the increase in NR1 staining by about half”.
